Results taken from patent US20110306597A1, “Nicotinamide Derivatives” (priority 2008, published 2011).

Biological target: human recombinant H-PGDS (Homo sapiens, UniProt O60760)
Experiment: Fluorescence Intensity h-PGDS TBA Enzyme Assay
Assay type: biochemical
Details: 1:175,000 human recombinant H-PGDS, highest inhibitor concentration typically 1 μM
Procedure: Fluorescence Intensity h-PGDSTBA Enzyme Assay
Prostaglandin D Synthase (PGDS) converts the substrate prostaglandin H2 (PGH2) to prostaglandin D2. The depletion of PGH2 was measured via an Fe(II) reduction of the remaining PGH2 to malondialdehyde (MDA) and 12-HHT. The enzyme assay is based on the quantitative formation of a fluorescent complex from the non-fluorescent compounds MDA and 2-thiobarbituric acid (TBA), substantially as described in U.S. patent application publication US-2004/152148 by Lombardt.
The enzyme assay (31 μls) contained 100 mM Tris base pH 8.0, 100 μM MgCl2, 0.1 mg/ml IgG Rabbit serum, 5.0 μM PGH2 (Cayman; ethanol solution, #17020), 2.5 mM L-Glutathione (Sigma; reduced form #G4251), 1:175,000 human recombinant H-PGDS (from 1 mg/ml), 0.5% DMSO and inhibitor (varying concentration). Three μls of diluted inhibitor (dissolved in DMSO) was plated into a 384-well assay plate followed by a 25 μl addition of an enzyme solution containing h-PGDS, Tris, MgCl2, IgG and L-Glutathione. After preincubation of inhibitor and enzyme solution for 10 minutes at room temperature, the reaction was initiated with a 3 μl addition of substrate solution in 10 mM HCl. The reaction was terminated after 42 second by the addition (3 μl) of stop buffer containing FeCl2 and citric acid. After addition of 45.5 μls of TBA plates were heated for one hour in a 70 C oven. Plates were cooled at room temperature overnight and read on a plate reader the next day with excitation @ 530 nm and emission @ 565 nm.
IC50's of inhibitors were calculated with a 4-parameter fit using 11 inhibitor concentrations in duplicate with 3-fold serial dilutions. Controls on each plate included no inhibitor (zero % effect) and an inhibitor 10-fold in excess of its' IC50 (100% effect). The highest inhibitor concentration tested was typically 1 μM.

human recombinant H-PGDS, sequence (O60760 whole entry): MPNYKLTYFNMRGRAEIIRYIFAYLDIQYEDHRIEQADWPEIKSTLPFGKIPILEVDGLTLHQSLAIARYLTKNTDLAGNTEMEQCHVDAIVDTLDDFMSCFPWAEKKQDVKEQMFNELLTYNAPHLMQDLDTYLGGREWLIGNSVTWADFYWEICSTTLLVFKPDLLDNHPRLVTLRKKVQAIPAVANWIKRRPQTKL

O=C(N[C@@H](CO)c1ccccc1)c1ccc(-c2cccc(F)c2)nc1 [Example 78, 6-(3-Fluorophenyl)-N-[(1R)-2-hydroxy-1-phenylethyl] nicotinamide] and C[C@@H](NC(=O)c1ccc(-c2cccc(F)c2)nc1)[C@@H](O)c1ccccc1 [Example 81, 6-(3-Fluorophenyl)-N-[(1R,2S)-2-hydroxy-1-methyl-2-phenethyl]nicotinamide] are within 1.5-fold of each other in IC50: 45 nM for the first, 41.2 nM for the second.

First: O=C(NCC(O)c1ccccc1F)c1ccc(-c2cccc(F)c2)nc1 (centres unmarked) [Example 79, 6-(3-Fluorophenyl)-N-[2-(2-fluorophenyl)-2-hydroxyethyl]nicotinamide]
Second: O=C(NCCn1nnc2ccccc21)c1ccc(-c2cccc(F)c2)nc1 [Example 82, N-[2-(1H-Benzotriazol-1-yl)ethyl]-6-(3-fluorophenyl)nicotinamide]
The IC50 of the first is 2.1-fold lower: 10.3 nM for the first, 21.5 nM for the second.

Going from CC(C)c1noc(CNC(=O)c2ccc(-c3cccc(F)c3)nc2)n1 [Example 83, 6-(3-Fluorophenyl)-N-[(3-isopropyl-1,2,4-oxadiazol-5-yl)methyl]nicotinamide] to Cc1nnc(CNC(=O)c2ccc(-c3cccc(F)c3)nc2)o1 [Example 96, 6-(3-Fluorophenyl)-N-[(5-methyl-1,3,4-oxadiazol-2-yl)methyl]nicotinamide], the IC50 rises from 72.8 nM to 175 nM (2.4-fold). The first is the more potent here.

Going from O=C(NCC1CCCN(c2ncc3c(n2)CCOC3)C1)c1ccc(-c2cccc(F)c2)nc1 (centres unmarked) [Example 84, N-{[1-(7,8-Dihydro-5H-pyrano[4,3-d]pyrimidin-2-yl)piperidin-3-yl]methyl}-6-(3-fluorophenyl)nicotinamide] to CN1CCc2nc(N3CCCC(CNC(=O)c4ccc(-c5cccc(F)c5)nc4)C3)ncc2C1 (centres unmarked) [Example 89, 6-(3-Fluorophenyl)-N-{[1-(6-methyl-5,6,7,8-tetrahydropyrido[4,3-d]pyrimidin-2-yl)piperidin-3-yl]methyl}nicotinamide], the IC50 falls from 13.8 nM to 6.13 nM (2.3-fold).

Cc1ncsc1CCCNC(=O)c1ccc(-c2cccc(F)c2)nc1 [Example 85, 6-(3-Fluorophenyl)-N-[3-(4-methyl-1,3-thiazol-5-yl)propyl]nicotinamide] and Cc1noc(C)c1CCCNC(=O)c1ccc(-c2cccc(F)c2)nc1 [Example 91, N-[3-(3,5-Dimethylisoxazol-4-yl)propyl]-6-(3-fluorophenyl)nicotinamide] are within 1.5-fold of each other in IC50: 4.88 nM for the first, 6.44 nM for the second.

CCc1nccn1CCCNC(=O)c1ccc(-c2cccc(F)c2)nc1 [Example 86, N-[3-(2-Ethyl-1H-imidazol-1-yl)propyl]-6-(3-fluorophenyl)nicotinamide] and Cc1ccn(CCNC(=O)c2ccc(-c3cccc(F)c3)nc2)n1 [Example 92, 6-(3-Fluorophenyl)-N-[2-(3-methyl-1H-pyrazol-1-yl)ethyl]nicotinamide] are within 1.5-fold of each other in IC50: 14.8 nM for the first, 18.7 nM for the second.

Going from Cc1noc(CC(NC(=O)c2ccc(-c3cccc(F)c3)nc2)c2ccccc2)n1 (centres unmarked) [Example 87, 6-(3-Fluorophenyl)-N-[2-(3-methyl-1,2,4-oxadiazol-5-yl)-1-phenylethyl]nicotinamide] to CN1CCN(CC(CNC(=O)c2ccc(-c3cccc(F)c3)nc2)c2ccccc2)CC1 (centres unmarked) [Example 103, 6-(3-Fluorophenyl)-N-[3-(4-methylpiperazin-1-yl)-2-phenylpropyl]nicotinamide], the IC50 rises from 35.8 nM to 316 nM (8.8-fold). The first is the more potent here.

O=C(NCCc1nnc(C2CC2)[nH]1)c1ccc(-c2cccc(F)c2)nc1 [Example 88, N-[2-(5-Cyclopropyl-4H-1,2,4-triazol-3-yl)ethyl]-6-(3-fluorophenyl)nicotinamide] and O=C(NCCc1nccs1)c1ccc(-c2cccc(F)c2)nc1 [Example 93, 6-(3-Fluorophenyl)-N-[2-(1,3-thiazol-2-yl)ethyl]nicotinamide] are within 1.5-fold of each other in IC50: 9.06 nM for the first, 12.5 nM for the second.

Going from CN1CCc2nc(N3CCC(NC(=O)c4ccc(-c5cccc(F)c5)nc4)C3)ncc2C1 (centres unmarked) [Example 90, 6-(3-Fluorophenyl)-N-[1-(6-methyl-5,6,7,8-tetrahydropyrido[4,3-d]pyrimidin-2-yl)pyrrolidin-3-yl]nicotinamide] to CN1CCC(CNC(=O)c2ccc(-c3cccc(F)c3)nc2)CC1 [Example 113, 6-(3-Fluorophenyl)-N-[(1-methylpiperidin-4-yl)methyl]nicotinamide], the IC50 rises from 0.852 nM to 149 nM (170-fold). The first is the more potent here.

Cc1cn2cc(CNC(=O)c3ccc(-c4cccc(F)c4)nc3)nc2s1 [Example 94, 6-(3-Fluorophenyl)-N-[(2-methylimidazo[2,1-b][1,3]thiazol-6-yl)methyl]nicotinamide] and O=C(NCc1cn2ccccc2n1)c1ccc(-c2cccc(F)c2)nc1 [Example 100, 6-(3-Fluorophenyl)-N-(imidazo[1,2-a]pyridin-2-ylmethyl)nicotinamide] are within 1.5-fold of each other in IC50: 14.8 nM for the first, 12.8 nM for the second.

Cc1cc(C)nc(CNC(=O)c2ccc(-c3cccc(F)c3)nc2)n1 [Example 95, N-[(4,6-Dimethylpyrimidin-2-yl)methyl]-6-(3-fluorophenyl)nicotinamide] and Cc1cc(O)nc(CNC(=O)c2ccc(-c3cccc(F)c3)nc2)n1 [Example 115, 6-(3-Fluorophenyl)-N-[(4-hydroxy-6-methylpyrimidin-2-yl)methyl]nicotinamide] are within 1.5-fold of each other in IC50: 95.7 nM for the first, 95 nM for the second.

Going from CN1CCCCC1CNC(=O)c1ccc(-c2cccc(F)c2)nc1 (centres unmarked) [Example 97, 6-(3-Fluorophenyl)-N-[(1-methylpiperidin-2-yl)methyl]nicotinamide] to CCN1CCCC(CNC(=O)c2ccc(-c3cccc(F)c3)nc2)C1 (centres unmarked) [Example 114, N-[(1-Ethylpiperidin-3-yl)methyl]-6-(3-fluorophenyl)nicotinamide], the IC50 rises from 153 nM to 236 nM (1.5-fold). The first is the more potent here.

Compared with Cc1cc(C(F)(F)F)nc(CNC(=O)c2ccc(-c3cccc(F)c3)nc2)n1 [Example 98, 6-(3-Fluorophenyl)-N-{[4-methyl-6-(trifluoromethyl)pyrimidin-2-yl]methyl}nicotinamide], Cc1cc(=O)[nH]c(N2CCC(CNC(=O)c3ccc(-c4cccc(F)c4)nc3)CC2)n1 [Example 109, 6-(3-Fluorophenyl)-N-{[1-(4-methyl-6-oxo-1,6-dihdyropyrimidin-2-yl)piperidin-4-yl]methyl}nicotinamide] is 4.2-fold lower in IC50: 146 nM for the first, 34.5 nM for the second. The second is the more potent here.

First: O=C(NCc1nncn1C1CCCCC1)c1ccc(-c2cccc(F)c2)nc1 [Example 99, N-[(4-Cyclohexyl-4H-1,2,4-triazol-3-yl)methyl]-6-(3-fluorophenyl)nicotinamide]
Second: O=C(NCC1CCCN(c2ncccn2)C1)c1ccc(-c2cccc(F)c2)nc1 (centres unmarked) [Example 101, 6-(3-Fluorophenyl)-N-[(1-pyrimidin-2-ylpiperidin-3-yl)methyl]nicotinamide]
The IC50 of the first is 1.8-fold higher: 31.5 nM for the first, 17.4 nM for the second. The second is the more potent here.

CCN(CC)CCCCNC(=O)c1ccc(-c2cccc(F)c2)nc1 [Example 102, N-[4-(Diethylamino)butyl]-6-(3-fluorophenyl)nicotinamide] and CN1CCN(CCCNC(=O)c2ccc(-c3cccc(F)c3)nc2)CC1 [Example 111, 6-(3-Fluorophenyl)-N-[3-(4-methylpiperazin-1-yl)propyl]nicotinamide] are within 1.5-fold of each other in IC50: 86.3 nM for the first, 108 nM for the second.

First: O=C(NCCNc1nccn2ccnc12)c1ccc(-c2cccc(F)c2)nc1 [Example 104, 6-(3-Fluorophenyl)-N-[2-(imidazo[1,2-a]pyrazin-8-ylamino)ethyl]nicotinamide]
Second: O=C(NCC1CN(CCc2ccccn2)C(=O)CO1)c1ccc(-c2cccc(F)c2)nc1 (centres unmarked) [Example 105, 6-(3-Fluorophenyl)-N-{[5-oxo-4-(2-pyridin-2-ylethyl)morpholin-2-yl]methyl}nicotinamide]
The IC50 of the first is 17-fold lower: 3.43 nM for the first, 58.6 nM for the second. The first is the more potent here.

Going from CC(C)N1CCN(CCCNC(=O)c2ccc(-c3cccc(F)c3)nc2)C(=O)C1=O [Example 106, 6-(3-Fluorophenyl)-N-[3-(4-isopropyl-2,3-dioxopiperazin-1-yl)propyl]nicotinamide] to CC(C)N1CCCC(CNC(=O)c2ccc(-c3cccc(F)c3)nc2)C1 (centres unmarked) [Example 116, 6-(3-Fluorophenyl)-N-[(1-isopropylpiperidin-3-yl)methyl]nicotinamide], the IC50 rises from 34.3 nM to 163 nM (4.8-fold). The first is the more potent here.

First: O=C(NCC1CCCN(c2nc(C(F)F)cc(=O)[nH]2)C1)c1ccc(-c2cccc(F)c2)nc1 (centres unmarked) [Example 107, N-({1-[4-(Difluoromethyl)-6-oxo-1,6-dihydropyrimidin-2-yl]piperidin-3-yl}methyl)-6-(3-fluorophenyl)nicotinamide]
Second: Cc1cc(=O)[nH]c(N2CCCC(CNC(=O)c3ccc(-c4cccc(F)c4)nc3)C2)n1 (centres unmarked) [Example 112, 6-(3-Fluorophenyl)-N-{[1-(4-methyl-6-oxo-1,6-dihydropyrimidin-2-yl)piperidin-3-yl]methyl}nicotinamide]
The IC50 of the first is 1.9-fold lower: 15.4 nM for the first, 29.2 nM for the second. The first is the more potent here.

First: CC(C)(C)C(=O)CNC(=O)c1ccc(-c2cccc(F)c2)nc1 [Example 108, N-(3,3-Dimethyl-2-oxobutyl)-6-(3-fluorophenyl)nicotinamide]
Second: O=C(NCC1CCCN(C2CCOCC2)C1)c1ccc(-c2cccc(F)c2)nc1 (centres unmarked) [Example 110, 6-(3-Fluorophenyl)-N-{[1-(tetrahydro-2H-pyran-4-yl)piperidin-3-yl]methyl}nicotinamide]
The IC50 of the first is 2.9-fold lower: 29.6 nM for the first, 87.1 nM for the second.
